The experiment concerns P. aeruginosa. The experiment is described as follows: Experiment 2 screening for antibiotic effect, P. aeruginosa. As to conditions: 24 h post inoculation. It is filed as cell-based, Pseudomonas aeruginosa. Here is the method:
The second experiment consisted of a screening for antibiotic effect of individual and combined substances. The materials that were used were:
The method involved the use of a microtiter (ELISA) plate (12×8 wells, i.e 96 wells in total, obtained from NUNC) with serial dilutions of venoms and bacteria at two concentrations.
The incubation time was 24 hours. OD was monitored at 650 nm every hour the first 7-8 hours, and then at 20 hours and 24 hours post inoculation. Each well was given 200 μl of diluted venom plus bacteria.
Three-dimensional diagrams shown as FIG. 3 to 11 summarize the above results. Observe that in each diagram serge 1 (Z axis) is substance BF, serie 2 is NK, 3 is OH, 4 is BA, 5 is TA, 6 is OH+BA, 7 is OH+TA and serie 8 is reference antibiotic. On the X-axis 1-5 is concentration of substance: 500, 250, 125, 62.5 och 31.2 mikrog/ml for substances (N.B. OH+BA and OH+TA have the double concentrations, i.e. the concentration is 1000, 500, 250, 125 and 62.5 ), and 100, 50, 25, 12.5, 6.25 mikrog/ml for reference antibiotic. The name on the diagrams is the tested bacteria strain (initials only given) and time is 7 hours after incubation start at which the substance was added. The combined OH+BA and OH+TA were obtained by mixing the single venoms in the same proportions.

Consider `NC[C@H]1O[C@H](O[C@H]2[C@H](O)[C@@H](O[C@H]3O[C@H](CO)[C@@H](O)[C@H](N)[C@H]3O)[C@H](N)C[C@@H]2N)[C@H](O)[C@@H](O)[C@@H]1O` [Kanamycin], for which the antibacterial effect entry is “no effect”.
